Patent publication US20250026766A1, “Thiazolopyridyl Amide Derivatives as DNA Polymerase Theta Inhibitors” (BeiGene, Ltd., priority 2022, published 2025)

Molecular target: Pol Theta (1-894) (Homo sapiens (Human), UniProt O75417)
Assay: Biochemical Pol Theta (1-894) ATPase IC50 assay (ADP-Glo, ssDNA substrate)
Settings: ADP-Glo assay with ssDNA substrate, room temperature
Summary of the method: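 His-tagged human Pol Theta 1-894 from Sf9 baculovirus cells, 2× enzyme solution at 12.5 nM, assayed with ssDNA substrate at room temperature in 40 mM Tris pH 7.5, 20 mM MgCl2, 1 mM DTT, 0.01% BSA, 0.05% Tween-20.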

Chain of Pol Theta (1-894) (O75417 1-894): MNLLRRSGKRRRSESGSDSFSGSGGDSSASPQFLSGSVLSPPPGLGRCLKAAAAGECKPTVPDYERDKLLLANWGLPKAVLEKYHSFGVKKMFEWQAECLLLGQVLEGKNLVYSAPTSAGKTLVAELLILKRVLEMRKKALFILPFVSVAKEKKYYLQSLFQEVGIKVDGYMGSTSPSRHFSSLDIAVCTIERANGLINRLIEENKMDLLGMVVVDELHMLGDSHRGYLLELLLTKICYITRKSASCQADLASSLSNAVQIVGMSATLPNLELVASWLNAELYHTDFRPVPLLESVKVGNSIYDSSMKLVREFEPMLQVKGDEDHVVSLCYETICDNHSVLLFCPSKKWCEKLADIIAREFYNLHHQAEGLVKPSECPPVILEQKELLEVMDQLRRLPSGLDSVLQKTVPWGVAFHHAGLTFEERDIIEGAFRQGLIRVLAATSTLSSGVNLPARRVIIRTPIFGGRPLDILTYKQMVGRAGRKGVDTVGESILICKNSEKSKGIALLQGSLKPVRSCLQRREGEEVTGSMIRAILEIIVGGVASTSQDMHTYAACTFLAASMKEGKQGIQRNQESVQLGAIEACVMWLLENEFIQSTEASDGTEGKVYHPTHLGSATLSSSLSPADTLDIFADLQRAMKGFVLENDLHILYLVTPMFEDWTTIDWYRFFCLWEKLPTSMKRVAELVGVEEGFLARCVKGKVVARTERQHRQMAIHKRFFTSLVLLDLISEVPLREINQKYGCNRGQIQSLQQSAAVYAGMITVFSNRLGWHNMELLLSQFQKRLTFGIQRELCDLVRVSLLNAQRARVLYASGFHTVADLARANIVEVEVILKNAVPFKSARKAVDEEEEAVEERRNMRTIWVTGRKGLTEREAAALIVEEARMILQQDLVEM

Structure (SMILES) | IC50
COc1ccc(C#N)cc1-c1cc(F)ncc1C(=O)Nc1nc2ccc(-c3ccc(C#N)cc3)nc2s1 [Example 39, 4-(5-cyano-2-methoxyphenyl)-N-(5-(4-cyanophenyl)thiazolo[5,4-b]pyridin-2-yl)-6-fluoronicotinamide] | 73 nM
COc1ccccc1-c1cnncc1C(=O)Nc1nc2ccc(-c3ccc(S(C)(=O)=O)cc3F)nc2s1 [Example 133, N-(5-(2-fluoro-4-(methylsulfonyl)phenyl)thiazolo[5,4-b]pyridin-2-yl)-5-(2-methoxyphenyl)pyridazine-4-carboxamide] | 11 nM
COc1ccc(C#N)cc1-c1cc(C)ncc1C(=O)Nc1nc2ccc(-c3ccc(CO)cc3)nc2s1 [Example 44, 4-(5-cyano-2-methoxyphenyl)-N-(5-(4-(hydroxymethyl)phenyl)thiazolo[5,4-b]pyridin-2-yl)-6-methylnicotinamide] | 14 nM
COc1cccc(C)c1-c1cc(C)ncc1C(=O)Nc1nc2ccc(-c3ccc(C#N)cc3)nc2s1 [Example 87, N-(5-(4-cyanophenyl)thiazolo[5,4-b]pyridin-2-yl)-4-(2-methoxy-6-methylphenyl)-6-methylnicotinamide] | 371 nM
COc1ccc(C#N)cc1-c1ccncc1C(=O)Nc1nc2ccc(-c3ccc(C#N)cc3)nc2s1 [Example 38, 4-(5-cyano-2-methoxyphenyl)-N-(5-(4-cyanophenyl)thiazolo[5,4-b]pyridin-2-yl)nicotinamide] | 11 nM
COCc1ccc(OC)c(-c2cc(C)ncc2C(=O)Nc2nc3ccc(-c4ccc(NC(C)=O)cc4)nc3s2)c1 [Example 28, N-(5-(4-acetamidophenyl)thiazolo[5,4-b]pyridin-2-yl)-4-(2-methoxy-5-(methoxymethyl)phenyl)-6-methylnicotinamide] | 256 nM
COc1ccc(C#N)cc1-c1cnncc1C(=O)Nc1nc2ccc(-c3ccc(NC(C)=O)cc3)nc2s1 [Example 23, N-(5-(4-acetamidophenyl)thiazolo[5,4-b]pyridin-2-yl)-5-(5-cyano-2-methoxyphenyl)pyridazine-4-carboxamide] | 22 nM
COc1ccc(C#N)cc1-c1cc(C)ncc1C(=O)Nc1nc2ccc(-c3ccc(CNC(C)=O)cc3)nc2s1 [Example 115, N-(5-(4-(acetamidomethyl)phenyl)thiazolo[5,4-b]pyridin-2-yl)-4-(5-cyano-2-methoxyphenyl)-6-methylnicotinamide] | 7.1 nM
COc1ccc(C#N)cc1-c1cnccc1C(=O)Nc1nc2ccc(-c3ccc(Cl)cc3)nc2s1 [Example 11, N-(5-(4-chlorophenyl)thiazolo[5,4-b]pyridin-2-yl)-3-(5-cyano-2-methoxyphenyl)isonicotinamide] | 57 nM
COc1ccc(C#N)cc1-c1cc(CC#N)ncc1C(=O)Nc1nc2ccc(-c3ccc(C#N)cc3)nc2s1 [Example 34, 4-(5-cyano-2-methoxyphenyl)-6-(cyanomethyl)-N-(5-(4-cyanophenyl)thiazolo[5,4-b]pyridin-2-yl)nicotinamide] | 16 nM
COc1ccccc1-c1cnncc1C(=O)Nc1nc2ccc(-c3cc(C)c(NC(C)=O)cc3C)nc2s1 [Example 141, N-(5-(4-acetamido-2,5-dimethylphenyl)thiazolo[5,4-b]pyridin-2-yl)-5-(2-methoxyphenyl)pyridazine-4-carboxamide] | 3.1 nM
COCc1ccc(-c2ccc3nc(NC(=O)c4cnc(C)cc4-c4cc(C#N)ccc4OC)sc3n2)cc1 [Example 79, 4-(5-cyano-2-methoxyphenyl)-N-(5-(4-(methoxymethyl)phenyl)thiazolo[5,4-b]pyridin-2-yl)-6-methylnicotinamide] | 41 nM
Cc1cc(-c2cc(C#N)c(=O)n(C)c2)c(C(=O)Nc2nc3ccc(-c4ccc(C#N)cc4)nc3s2)cn1 [Example 147, 5-cyano-N-(5-(4-cyanophenyl)thiazolo[5,4-b]pyridin-2-yl)-1,6′-dimethyl-6-oxo-1,6-dihydro-[3,4′-bipyridine]-3′-carboxamide] | 53 nM
Cc1cc(-c2cc(C#N)ccc2C)c(C(=O)Nc2nc3ccc(-c4ccc(C#N)cc4)nc3s2)cn1 [Example 106, 4-(5-cyano-2-methylphenyl)-N-(5-(4-cyanophenyl)thiazolo[5,4-b]pyridin-2-yl)-6-methylnicotinamide] | 26 nM
COc1ccccc1-c1cnncc1C(=O)Nc1nc2ccc(-c3ccc(N4COCC4=O)cc3)nc2s1 [Example 149, 5-(2-methoxyphenyl)-N-(5-(4-(4-oxooxazolidin-3-yl)phenyl)thiazolo[5,4-b]pyridin-2-yl)pyridazine-4-carboxamide] | 18 nM
COc1ccc(C#N)cc1-c1cc(C)ncc1C(=O)Nc1nc2ccc(-c3ccc(NC(=O)C(C)C)c(C)c3)nc2s1 [Example 51, 4-(5-cyano-2-methoxyphenyl)-N-(5-(4-isobutyramido-3-methylphenyl)thiazolo[5,4-b]pyridin-2-yl)-6-methylnicotinamide] | 15 nM
COc1ccccc1-c1nc(C#N)ccc1C(=O)Nc1nc2ccc(-c3ccc(Cl)cc3)nc2s1 [Example 6, N-(5-(4-chlorophenyl)thiazolo[5,4-b]pyridin-2-yl)-6-cyano-2-(2-methoxyphenyl)nicotinamide] | 359 nM
COc1ccc(C#N)cc1-c1cc(Cl)ncc1C(=O)Nc1nc2ccc(-c3ccc(N4CCOCC4)cc3)nc2s1 [Example 58, 6-chloro-4-(5-cyano-2-methoxyphenyl)-N-(5-(4-morpholinophenyl)thiazolo[5,4-b]pyridin-2-yl)nicotinamide] | 101 nM
COc1ccccc1-c1cnncc1C(=O)Nc1nc2ccc(-c3ccc(N(C)C(C)=O)cc3)nc2s1 [Example 56, 5-(2-methoxyphenyl)-N-(5-(4-(N-methylacetamido)phenyl)thiazolo[5,4-b]pyridin-2-yl)pyridazine-4-carboxamide] | 15 nM
COc1ccccc1-c1cnncc1C(=O)Nc1nc2ccc(Oc3ccc(Cl)cc3F)nc2s1 [Example 155, N-(5-(4-chloro-2-fluorophenoxy)thiazolo[5,4-b]pyridin-2-yl)-5-(2-methoxyphenyl)pyridazine-4-carboxamide] | 73 nM

Further compounds by falling IC50, results first:

IC50 | Structure (SMILES)
253 nM | Cc1cc(-c2cccc3c2OCO3)c(C(=O)Nc2nc3ccc(-c4ccc(C#N)cc4)nc3s2)cn1 [Example 68, 4-(benzo[d][1,3]dioxol-4-yl)-N-(5-(4-cyanophenyl)thiazolo[5,4-b]pyridin-2-yl)-6-methylnicotinamide]
186 nM | CC(=O)Nc1ccc(-c2ccc3nc(NC(=O)c4ccc(C#N)nc4N4CCOCC4)sc3n2)cc1 [Example 5, N-(5-(4-acetamidophenyl)thiazolo[5,4-b]pyridin-2-yl)-6-cyano-2-morpholinonicotinamide]
150 nM | COc1ccc(OC)c(-c2cc(C)ncc2C(=O)Nc2nc3ccc(-c4ccc(C#N)cc4)nc3s2)c1 [Example 49, N-(5-(4-cyanophenyl)thiazolo[5,4-b]pyridin-2-yl)-4-(2,5-dimethoxyphenyl)-6-methylnicotinamide]
94 nM | CCS(=O)(=O)Nc1ccc(-c2ccc3nc(NC(=O)c4cnc(C)cc4-c4cc(C#N)ccc4OC)sc3n2)cc1 [Example 35, 4-(5-cyano-2-methoxyphenyl)-N-(5-(4-(ethylsulfonamido)phenyl)thiazolo[5,4-b]pyridin-2-yl)-6-methylnicotinamide]
60 nM | COc1ccccc1-c1cnncc1C(=O)Nc1nc2ccc(C(=O)NCCO)nc2s1 [Example 112, N-(2-hydroxyethyl)-2-(5-(2-methoxyphenyl)pyridazine-4-carboxamido)thiazolo[5,4-b]pyridine-5-carboxamide]
59 nM | COc1ccccc1-c1cc(C)ncc1C(=O)Nc1nc2ccc(-c3ccc(C#N)cc3)nc2s1 [Example 72, N-(5-(4-cyanophenyl)thiazolo[5,4-b]pyridin-2-yl)-4-(2-methoxyphenyl)-6-methylnicotinamide]
41 nM | COc1ccc(C#N)cc1-c1cc(C)ncc1C(=O)Nc1nc2ccc(-c3ccc(N(CCO)S(C)(=O)=O)cc3)nc2s1 [Example 136, 4-(5-cyano-2-methoxyphenyl)-N-(5-(4-(N-(2-hydroxyethyl)methylsulfonamido)phenyl)thiazolo[5,4-b]pyridin-2-yl)-6-methylnicotinamide]
23 nM | COc1ccc(C#N)cc1-c1cc(C)ncc1C(=O)Nc1nc2ccc(-c3ccc(N(C)S(C)(=O)=O)c(C)c3)nc2s1 [Example 89, 4-(5-cyano-2-methoxyphenyl)-6-methyl-N-(5-(3-methyl-4-(N-methylmethylsulfonamido)phenyl)thiazolo[5,4-b]pyridin-2-yl)nicotinamide]
20 nM | COc1ccccc1-c1cnncc1C(=O)Nc1nc2ccc(-c3ccc(N4CCCC4=O)cc3)nc2s1 [Example 93, 5-(2-methoxyphenyl)-N-(5-(4-(2-oxopyrrolidin-1-yl)phenyl)thiazolo[5,4-b]pyridin-2-yl)pyridazine-4-carboxamide]
8.9 nM | COc1ccccc1-c1cnncc1C(=O)Nc1nc2ccc(-c3ccc(NC(C)=O)c(C)c3)nc2s1 [Example 165, N-(5-(4-acetamido-3-methylphenyl)thiazolo[5,4-b]pyridin-2-yl)-5-(2-methoxyphenyl)pyridazine-4-carboxamide]
8.5 nM | COc1ccc(C#N)cc1-c1cc(Cl)ncc1C(=O)Nc1nc2ccc(-c3ccc(C#N)cc3)nc2s1 [Example 33, 6-chloro-4-(5-cyano-2-methoxyphenyl)-N-(5-(4-cyanophenyl)thiazolo[5,4-b]pyridin-2-yl)nicotinamide]
8.1 nM | COc1ccccc1-c1cnncc1C(=O)Nc1nc2ccc(-c3ccc(C#N)cc3F)nc2s1 [Example 128, N-(5-(4-cyano-2-fluorophenyl)thiazolo[5,4-b]pyridin-2-yl)-5-(2-methoxyphenyl)pyridazine-4-carboxamide]
7.5 nM | COc1ccc(C#N)cc1-c1cc(C)ncc1C(=O)Nc1nc2ccc(-c3ccc(C#N)cc3C)nc2s1 [Example 169, 4-(5-cyano-2-methoxyphenyl)-N-(5-(4-cyano-2-methylphenyl)thiazolo[5,4-b]pyridin-2-yl)-6-methylnicotinamide]
